According to US9624268B2, “Oral peptide inhibitors of interleukin-23 receptor and their use to treat inflammatory bowel diseases” (Protagonist Therapeutics, Inc., priority 2014, dated 2017):

System: Sprague Dawley rats with DSS-induced colitis
Test: Rat colitis model: 9 days of 3% DSS-containing drinking water
Type: in vivo
Settings: 100 mg/kg PO, QD
Procedure: Rat Colitis Model: 9 Days of 3% DSS-Containing Drinking Water
In this model, colitis was induced in SD rats by 9 days of ad lib exposure to drinking water containing 3% DSS. The disease activity index (DAI) score and ratio of colon weight:colon length were compared between three study groups (n=6 rats/group): vehicle, 3% DSS, and 3% DSS with positive control (sulfasalazine administered at 100 mg/kg PO, QD).
Acute colitis was induced by feeding female Sprague Dawley rats with 3% (wt/vol) DSS dissolved in drinking water. […] To quantify colitis with clinical activity, disease activity index (DAI) was determined daily for each animal as an average of three parameters: body weight change (scale 0-3), stool consistency (scale 0-3) and hemoccult blood (scale 0-3), as shown in Table 15. At necropsy, the entire colon was removed from the cecum to the rectum. The colon was measured for length, flushed with PBS to remove feces, weighed, and opened longitudinally to determine macroscopic score.

## O=C(O)c1cc(/N=N/c2ccc(S(=O)(=O)Nc3ccccn3)cc2)ccc1O [sulfasalazine]
  terminal ratio of colon weight:colon length, difference with and without treatment: significant
From Day 5
  disease activity index (DAI) score compared to DSS alone: attenuated the disease score
